Laboratory results: PMC9733678, “Combining drug salt formation with amorphous solid dispersions – a double edged sword” (Journal of Controlled Release, 2022)

Tests used:
[1] = Water sorption analysis of amorphous lumefantrine salts (DVS); type: physicochemical; details: neat amorphous salt; for weight gain (water sorption): 95% RH
Experimental: Water sorption profiles of the amorphous lumefantrine salts were measured using a DVS Adventure water vapor sorption analyzer (Surface Measurement Systems, Wembley, UK). Powdered salt (5–10 mg) was dried at 0% RH in the instrument for 120 min. After drying, the RH within the chamber was increased from 5% to 95% at a 5% step interval. The equilibrium criterion was a percent weight change over time (% dm/dt) of <0.002%/min for 10 min. Nitrogen was used as the purging gas.

[2] = Physical stability, open dish 40 °C/75% RH, monitored by PXRD; type: physicochemical; details: neat amorphous salt
Experimental: PXRD patterns of the lumefantrine salts and salt ASDs were collected using an X-ray diffractometer (Rigaku SmartLab, Rigaku Americas, The Woodlands, TX) operating at 40 kV and […] in Bragg–Brentano mode with a Cu-kα radiation source and D/tex ultra detector. Each sample was spread thinly on a glass sample holder. Data was collected from 4 to 40° 2θ using a step size of 0.02° and a scan rate of 4°/min.
To assess the physical stability of the salts and salt ASDs, the samples were stored in open dish accelerated stability conditions of 40 °C/ 75% RH. At pre-determined time intervals, the samples were removed and their PXRD patterns collected.

[3] = design: method as in PMID 10468018; details: amorphous salt; cited from earlier work
[4] = Thermal analysis (DSC), onset glass transition temperature; type: physicochemical; details: for Tg (glass transition temperature) of neat amorphous material: DSC
Experimental: A Q2000 differential scanning calorimeter (DSC; Q2000, TA Instruments, New Castle, DE) connected to an RCS 90 refrigerated cooling system (TA Instruments, New Castle, DE) was used to analyze the lumefantrine salts and salt ASDs. The thermal properties of lumefantrine free base, lumefantrine free base ASDs, and neat PVPVA were also analyzed. The purging gas used was dry nitrogen (50 mL/min flow rate). Temperature calibration of the DSC was performed using indium and tin, while indium was used for enthalpy calibration. Each sample (5–10 mg) was carefully weighed and sealed in a Tzero aluminum sample pan (TA Instruments, New Castle, DE). The procedure to obtain the sample Tg is as follows: equilibration at −10 °C, followed by heating with a modulation of ±0.636 °C every 40 s at 3 °C/min to the temperature of interest. The samples were then cooled to −10 °C at 10 °C/min and reheated at 5 °C/min. The first heating cycle was used to remove thermal history associated with the samples, while the second cycle was used to obtain the sample Tg.

[5] = design: method as in PMID 32134677; details: PVPVA ASD; cited from earlier work
[6] = design: method as in PMID 23763957; details: cited from earlier work
[7] = design: method as in PMID 24189249; details: cited from earlier work

## CCCCN(CCCC)CC(O)c1cc(Cl)cc2c1-c1ccc(Cl)cc1C2=Cc1ccc(Cl)cc1.Cl (centres unmarked) [HCl salt, Lumefantrine HCl]
[1]
  weight gain (water sorption): < 2%
[2]
  time re-crystallization was resisted: at least 16 weeks

## COc1ccc2c(c1)c(CC(=O)[O-])c(C)n2C(=O)c1ccc(Cl)cc1.[Na+] [Na indomethacin]
[3]
  Tg higher than indomethacin free acid: ~75 °C

## CCCCN(CCCC)CC(O)c1cc(Cl)cc2c1-c1ccc(Cl)cc1/C2=C/c1ccc(Cl)cc1.O=C(O)c1ccccc1 (centres unmarked) [benzoate salt, Lumefantrine benzoate]
[1]
  weight gain (water sorption): < 2%
[4]; neat amorphous salt
  elevation in Tg relative to the free base: ~10 °C
[2]
  storage time at which crystalline peaks were observed: ≤ 4 weeks

## CCCCN(CCCC)CC(O)c1cc(Cl)cc2c1-c1ccc(Cl)cc1C2=Cc1ccc(Cl)cc1.O=S(=O)(O)c1ccccc1 (centres unmarked) [besylate salt, Lumefantrine besylate]
[1]
  weight gain (water sorption): < 2%
[2]
  storage time at which crystalline peaks were observed: ≤ 4 weeks

## CC1(C)[C@@H]2CC[C@@]1(CS(=O)(=O)O)C(=O)C2.CCCCN(CCCC)CC(O)c1cc(Cl)cc2c1-c1ccc(Cl)cc1/C2=C/c1ccc(Cl)cc1 (centres unmarked) [camsylate salt, Lumefantrine camsylate]
[1]
  weight gain (water sorption): < 2%
[2]
  storage time at which crystalline peaks were observed: 32 weeks

## COc1ccc2c(c1)c(CC(=O)O)c(C)n2C(=O)c1ccc(Cl)cc1 [indomethacin]
[5]
  limit of congruency (LoC): 10%

## CCCCN(CCCC)CC(O)c1cc(Cl)cc2c1-c1ccc(Cl)cc1/C2=C/c1ccc(Cl)cc1 (centres unmarked) [lumefantrine, reference compound]
[6]
  pKa of tertiary amine: 8.73
[7]
  log P: 8.34
[4]
  Tg (glass transition temperature) of neat amorphous material: 19.7 °C
[4]; listed as free base
  Tg (glass transition temperature) of neat amorphous material: 20 °C

## CCCCN(CCCC)CC(O)c1cc(Cl)cc2c1-c1ccc(Cl)cc1/C2=C/c1ccc(Cl)cc1.CCCCN(CCCC)CC(O)c1cc(Cl)cc2c1-c1ccc(Cl)cc1/C2=C/c1ccc(Cl)cc1.O=S(=O)(O)O (centres unmarked) [sulfate salt, Lumefantrine sulfate]
[1]
  weight gain (water sorption): 3.3%
[4]
  Tg (glass transition temperature) of neat amorphous material: 101 °C
[2]
  time re-crystallization was resisted: at least 16 weeks

## CCCCN(CCCC)CC(O)c1cc(Cl)cc2c1-c1ccc(Cl)cc1C2=Cc1ccc(Cl)cc1.Cc1ccc(S(=O)(=O)O)cc1 (centres unmarked) [tosylate salt, Lumefantrine tosylate]
[1]
  weight gain (water sorption): < 2%

## Lumefantrine PEG 250 diacid [PEG 250 diacid (1:1) salt]
[1]
  appearance after exposure to 95% RH: liquified
  weight gain (water sorption): 6.6%
[1]; 90% RH
  increase in weight (water sorption): 5.1%

## Lumefantrine PEG 250 diacid [PEG 250 diacid (2:1) salt]
[2]
  storage time at which crystalline peaks were observed: ≤ 4 weeks
